Test results as given in PMC10729960, “Developing novel antimicrobials by combining cancer chemotherapeutics with bacterial DNA repair inhibitors” (PLOS Pathogens, 2023).

Experiments:
Format in all cases: biochemical
[1] = molecular target: T1, UvrABC (UvrA, UvrB and UvrC) (Escherichia coli, UniProt P0A698+P0A8F8+P0A8G0); assay: fluorescence-based DNA incision assay (Cy5 / black hole quencher); details: 37 °C, 200 nM UvrA, 400 nM UvrB, 200 nM UvrC, 1 mM ATP, 100 nM fluorescein-adducted DNA, pH 7.5, compound concentration not given for this assay
T1 construct: purified proteins; UvrB and UvrC with C-terminal linker, AviTag, TEV site and 6xHis

[2] = molecular target: T2, UvrA (Escherichia coli, UniProt P0A698); assay: NADH-coupled ATPase assay (pyruvate kinase / lactate dehydrogenase); details: 1 mM ATP, 50 nM UvrA, 10 mM MgCl2, pH 7.5, room temperature
T2 sequence (P0A698 1-940): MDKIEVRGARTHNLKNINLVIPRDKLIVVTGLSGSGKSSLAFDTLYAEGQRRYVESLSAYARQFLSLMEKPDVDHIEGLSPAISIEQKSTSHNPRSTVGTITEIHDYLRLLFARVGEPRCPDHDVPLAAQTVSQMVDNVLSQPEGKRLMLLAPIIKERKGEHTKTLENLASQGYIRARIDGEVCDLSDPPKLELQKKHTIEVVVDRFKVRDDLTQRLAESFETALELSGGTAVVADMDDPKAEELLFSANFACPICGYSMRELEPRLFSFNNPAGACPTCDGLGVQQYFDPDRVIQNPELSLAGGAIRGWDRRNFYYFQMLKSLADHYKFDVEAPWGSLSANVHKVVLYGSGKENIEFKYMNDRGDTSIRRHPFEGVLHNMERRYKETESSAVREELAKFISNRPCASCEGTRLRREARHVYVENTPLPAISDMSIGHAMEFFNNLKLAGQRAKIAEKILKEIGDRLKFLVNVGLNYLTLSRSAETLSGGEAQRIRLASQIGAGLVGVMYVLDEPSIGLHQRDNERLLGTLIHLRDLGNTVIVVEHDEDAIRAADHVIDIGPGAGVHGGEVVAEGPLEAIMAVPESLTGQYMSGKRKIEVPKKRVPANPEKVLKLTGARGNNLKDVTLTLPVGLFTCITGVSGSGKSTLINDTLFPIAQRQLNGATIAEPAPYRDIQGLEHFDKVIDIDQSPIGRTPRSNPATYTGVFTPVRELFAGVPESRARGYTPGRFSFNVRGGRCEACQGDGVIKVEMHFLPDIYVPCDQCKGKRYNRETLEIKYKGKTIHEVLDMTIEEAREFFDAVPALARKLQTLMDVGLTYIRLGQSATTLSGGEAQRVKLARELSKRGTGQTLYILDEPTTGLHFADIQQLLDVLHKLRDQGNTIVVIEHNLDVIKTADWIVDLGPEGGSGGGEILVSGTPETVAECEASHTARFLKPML

[3] = molecular target: T2, UvrA; assay: as above; details: without DNA; 50 nM UvrA, 20 μM compound, 1 mM ATP, 10 mM MgCl2, pH 7.5, room temperature; allosteric site only from docking
[4] = molecular target: T2, UvrA; assay: as above; details: with and without DNA; 50 nM UvrA, 20 μM compound, 1 mM ATP, 10 mM MgCl2, pH 7.5, room temperature; DNA intercalator

T1 sequence (P0A8G0 whole entry, one chain of several): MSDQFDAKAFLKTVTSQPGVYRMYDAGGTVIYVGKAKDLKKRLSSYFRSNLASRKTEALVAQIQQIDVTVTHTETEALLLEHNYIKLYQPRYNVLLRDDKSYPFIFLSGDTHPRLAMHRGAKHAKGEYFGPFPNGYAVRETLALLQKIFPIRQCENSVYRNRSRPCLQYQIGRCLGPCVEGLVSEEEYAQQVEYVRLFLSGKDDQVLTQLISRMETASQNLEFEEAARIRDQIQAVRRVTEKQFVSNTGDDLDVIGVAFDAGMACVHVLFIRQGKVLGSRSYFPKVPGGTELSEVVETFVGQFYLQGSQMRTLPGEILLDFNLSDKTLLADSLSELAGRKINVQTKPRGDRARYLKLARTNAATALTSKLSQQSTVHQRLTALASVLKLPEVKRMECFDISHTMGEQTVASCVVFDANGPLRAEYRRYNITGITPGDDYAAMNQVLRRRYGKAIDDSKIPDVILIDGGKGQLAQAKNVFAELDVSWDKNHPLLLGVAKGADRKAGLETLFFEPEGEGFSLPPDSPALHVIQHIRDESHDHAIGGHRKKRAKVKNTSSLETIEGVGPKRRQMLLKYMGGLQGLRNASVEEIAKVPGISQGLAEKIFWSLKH
T1 sequence (P0A8F8 2-673, one chain of several): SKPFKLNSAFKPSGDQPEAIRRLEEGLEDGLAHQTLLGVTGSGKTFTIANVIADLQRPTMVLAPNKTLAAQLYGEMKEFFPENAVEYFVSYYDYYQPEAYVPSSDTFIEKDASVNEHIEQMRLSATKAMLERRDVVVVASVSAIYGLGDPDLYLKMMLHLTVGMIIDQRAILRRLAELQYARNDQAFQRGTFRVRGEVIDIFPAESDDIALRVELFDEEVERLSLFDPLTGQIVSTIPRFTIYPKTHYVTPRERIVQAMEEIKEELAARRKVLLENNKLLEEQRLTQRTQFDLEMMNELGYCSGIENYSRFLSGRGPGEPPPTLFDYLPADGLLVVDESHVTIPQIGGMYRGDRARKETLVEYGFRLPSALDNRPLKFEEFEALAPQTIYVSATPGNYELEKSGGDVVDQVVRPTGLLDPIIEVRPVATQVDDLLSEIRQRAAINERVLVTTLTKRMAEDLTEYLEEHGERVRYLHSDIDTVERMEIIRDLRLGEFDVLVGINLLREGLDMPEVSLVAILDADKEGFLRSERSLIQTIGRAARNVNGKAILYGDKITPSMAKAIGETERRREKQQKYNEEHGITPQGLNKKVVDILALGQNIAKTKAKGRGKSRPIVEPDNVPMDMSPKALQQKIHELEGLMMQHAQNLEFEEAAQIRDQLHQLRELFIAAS

SMILES | % reduction of ATPase at 20 μM [3] [%] | % ATPase activity at 20 μM [4] | other results
Nc1c2ccccc2nc2ccccc12 [9-aminoacridine] | – | – | max inhibition ([1]; 2.5 h, possibly acts through DNA, target subunit unk): ~ 49%
Nc1ncnc2c1ncn2[C@@H]1O[C@H](COP(=O)(O)OP(=O)(O)OP(=O)(O)O)[C@@H](O)[C@H]1O [ATP] | – | – | NADH-coupled ATPase assay (pyruvate kinase / lactate dehydrogenase) [2]: We directly measured the rate of ATP turnover for purified UvrA
C/C=C(/C(=C/C)c1ccc(O)cc1)c1ccc(O)cc1 [Dienestrol] | > 70 | – | max inhibition ([1]; 16 h): ~ 25%
N[C@@H](Cc1cc(I)c(Oc2cc(I)c(O)c(I)c2)c(I)c1)C(=O)O [L-thyroxine] | > 70 | – | –
O=C1c2c(O)ccc(O)c2C(=O)c2c(NCCNCCO)ccc(NCCNCCO)c21 [Mitoxantrone] | – | both Mitoxantrone and Pirarubicin directly inhibit UvrA’s ATPase activity | max inhibition ([1]; 16 h, DNA intercalator): ~ 82%
COc1cccc2c1C(=O)c1c(O)c3c(c(O)c1C2=O)C[C@@](O)(C(=O)CO)C[C@@H]3O[C@H]1C[C@H](N)[C@H](O[C@@H]2CCCCO2)[C@H](C)O1 [Pirarubicin] | – | Pirarubicin, Mitoxantrone, Dienestrol and L-thyroxine all inhibited the ATPase | –
